Holding throughout (test): Minimum Inhibitory Concentration (MIC) test / synergy testing
Format in all cases: cell-based

The subject of assay [1] is Candida albicans DSM# 1386. The conditions noted are these: single biocide, TSB medium pH 5, 30° C., 72 hours. The protocol:
(§1) The synergism of the biocides combination of the present invention was determined using the Minimum Inhibitory (MIC) test method described by Kull, F. C., et. al in Applied Microbiology 9:538-541 (1961).
The Minimum Inhibitory Concentration Test (MIC) is designed to evaluate the lowest concentration of a biocide, biocide blend or biocide combination to prevent bacteria growing in a defined broth. […]
The synergy testing was carried out as follows: • 1. The test was executed with a Hamilton MLStarPlus robot using automated turbidity reading with BioTek Synergy H4 plate reader. • 2. […]
• The cultures were maintained as glycerol stocks at −80° C. in cryovials, are thawed and then 100 μl spread on MEA (malt extract agar) petri dishes. • The yeast strain plates were incubated at 28° C. for 1-2 days then harvested with buffer pH 5.0. • Based on total viable count results, the inoculum was prepared. • 7. […] Reading of the results was carried out by measuring absorbance at 600 nm for each sample at the beginning of the test (tzero) and after incubation (tendpoint). tendpoint was chosen at 48 hours for bacteria and 72 hours for yeast. The difference in absorbance between tendpoint and tzero was used to assign a score (“1” if Δ>0.2, confirming growth, and “0” if Δ≤0.2, confirming no growth) from which the MIC values were derived.

Assay [2] concerns Pseudomonas aeruginosa DSM# 939. Particulars: single biocide, TSB medium pH 5, 30° C., 48 hours. How it is done:
as §1
(§2) The Minimum Inhibitory Concentration Test (MIC) is designed to evaluate the lowest concentration of a biocide, biocide blend or biocide combination to prevent bacteria growing in a defined broth.
(§3) The MICs of the single biocides NaOPP and BDA as well as of combinations of these two actives (all in TSB) in 3 different ratios (1:1; 10:1, 100:1) were estimated against each of the 4 microorganisms Staphylococcus aureus (DSMZ#799), Pseudomonas aeruginosa (DSMZ#939) and Candida albicans (DSMZ#1386), Pseudomonas putida, respectively.
(§4) The synergy testing was carried out as follows: • 1. The test was executed with a Hamilton MLStarPlus robot using automated turbidity reading with BioTek Synergy H4 plate reader. • 2. Biocide systems were prepared in 2.2 ml deep well plates by transferring and diluting biocides from stock solutions to first rows of the plates. The concentrations of biocides in stock bottles were adjusted to be 20× more concentrated than the highest desired concentration. • 3. Then 15 subsequent serial dilutions with dilution factor 1.3 were performed resulting in 16 different concentrations for each system. • 4. In the next step serially diluted biocide systems were transferred to the media blocks containing 850 μl of TSB medium adjusted to pH 5. For each biocide system 100 μl was transferred to the media, resulting in 950 μl of final volume of media+biocides and 9.5 times dilution of the biocides from the biocide plate. At this point, the concentrations of all biocides in media were 1.053×final concentration. • 5. After preparation and mixing of the described systems, 4 aliquots of 190 μl were prepared in 96-well microtiter plates. • 6. Preparation of the microbe suspension:
(§5) • The culture was maintained as a glycerol stock at −80° C. in cryovials. A cryovial was thawed and then 100 μl spread on a TSA agar plate. After incubation for 1 day at 30° C. the bacteria were harvested with buffer at pH 7.3. A total viable count on TSA plate was carried out and bacterial suspension was diluted in buffer in order to deliver ˜2×10^7 CFU/ml.
(§6) • The cultures were maintained as glycerol stocks at −80° C. in cryovials, are thawed and then 100 μl spread on MEA (malt extract agar) petri dishes. • The yeast strain plates were incubated at 28° C. for 1-2 days then harvested with buffer pH 5.0. • Based on total viable count results, the inoculum was prepared. • 7. Each test sample (190 μl) was inoculated with the 10 μl of microbe suspension to provide a level of ˜1×10^6 CFU/ml of the bacteria species and ˜1×10^5 CFU/ml of the yeast species. • 8. The test samples were mixed and incubated at 30° C. for 2 days (48 hours) when tested against bacteria and 3 days (72 hours), respectively, when tested against yeast. • 9. Growth of the micro-organisms leads to turbidity after incubation, clarity indicates no growth. Reading of the results was carried out by measuring absorbance at 600 nm for each sample at the beginning of the test (tzero) and after incubation (tendpoint). tendpoint was chosen at 48 hours for bacteria and 72 hours for yeast. The difference in absorbance between tendpoint and tzero was used to assign a score (“1” if Δ>0.2, confirming growth, and “0” if Δ≤0.2, confirming no growth) from which the MIC values were derived.

The test system of assay [3] is Pseudomonas putida. Particulars: single biocide, TSB medium pH 5, 30° C., 48 hours. The protocol:
as §1, §2, §3, §4, §5, §6

In assay [4] the test system is Staphylococcus aureus DSM# 799. The conditions noted are these: single biocide, TSB medium pH 5, 30° C., 48 hours. How it is done: as §1, §2, §3, §4, §5, §6

The term MIC denotes the lowest concentration that inhibits growth of the organism.

The structures appear in SMILES notation.

With `[Na+].[O-]c1ccccc1-c1ccccc1` [NAOPP, sodium ortho-phenylphenate], the “MIC results for single biocides” value is on record as 167 ppm in assay [1], 167 ppm in assay [2], 283 ppm in assay [3] and 129 ppm in assay [4].
Consider `CCCCCCCCCCCCN(CCCN)CCCN` [BDA, bis-(3-aminopropyl)dodecylamine], for which the MIC is no less than 260 µg/mL in assay [1] (Candida albicans, DSM1386, read-out: MIC results for single biocides); 200 µg/mL in assay [2] (Pseudomonas aeruginosa, DSM939, read-out: MIC results for single biocides); 200 µg/mL in assay [3] (Pseudomonas putida, read-out: MIC results for single biocides); 91 µg/mL in assay [4] (Staphylococcus aureus, DSM799, read-out: MIC results for single biocides).

Source of the values: patent US20190364890A1, “SYNERGISTIC COMBINATION OF ORTHO-PHENYLPHENOL AND BIS-(3-AMINOPROPYL)DODECYLAMINE” (Dow Global Technologies LLC, priority 2016, published 2019).
